Test results taken from US7052850B2, “Isolated human EDG-4 receptor” (priority 1997, dated 2006).

How the values were obtained:
Format in all cases: cell-based
[1] = test system: pcDNA3-transfected 293-EBNA cells; test: SRE luciferase reporter in 293-EBNA cells, empty vector pcDNA3; conditions: for SRE reporter response: Assay 3, 3 μM
Description: The protocol described in Example 11 for Assay 1 was allowed except for the following changes: • 1) 100 mm plates of 293-EBNA ith a confluency of ˜80% were used for transfection, • 2) SRE Cotransfection: 0.5 μg of 2XSREtk-p4Luc-zeo reporter DNA and 3.5 μg pcDNA3, EDG-1, EDG-3 pC3-hE3P2, different from the clone used in Assay 2 of Example 11) or the newly cloned human EDG-4 (pC3-hedg4#36); NF-κB Cotransfection: 2 μg 6XNFκBtk-p4LUc-zeo reporter DNA and 2.0 μg pcDNA3, EDG-1, EDG-3 (pC3-hE3HP2), or EDG-4 (pC3-hedg4#36). Expression plasmid and reporter plasmid DNA samples were combined and diluted in 750 μl of DMEM/F12 (serum free media) and 20 μl Plus Reagent (Lipofectamine Plus Kit, Life Technologies Cat. 109640-13), and incubated at room temperature for 15 min. • 3) 30 μl Lipofectamine Reagent (Lipofectamine Plus Kit) was diluted in 750 μl DMEM/F12. The diluted Lipofectamine was then combined with the DNA/Plus mixture and incubated at room temperature for 15 min. • 4) The 293-EBNA plates were washed once with PBS and 5 ml DMEM/F12 was added to each plate. • 5) DNA/Plus/Lipofectamine mixture was added to each plate of 293-EBNA cells. The plates were left for 3 hr at 37° C. in a 5% CO2 incubator. • 6) The transfection medium was replaced with serum-free DMEM/F12 for cells transfected with 2XSREtk-p4Luc-zeo reporter DNA and with DMEM/F12 plus 10% FBS for cells transfected with 6XNFκBtk-p4Luc-zeo reporter DNA. • Day 2. • 2) Transfected cells were harvested by trypsinization and 50,000 cells per well were plated in 96-well Blackview plates coated with poly D-lysine Becton Dickinson Labware, Cat. 40640). No cells were plated in the outside wells of the 96-well plate. • Day 3. • 1) Media for cells transfected with 6XNF-κBtk-p4Luc-zeo reporter DNA was replaced with DMEM/F12 plus 0.5% FBS. • Day 4. • 1) Media was removed and cells treated with compounds diluted in DMEM/F12 media. The following treatments were used for all transfections:
Transfection was accomplished using the Lipofectamine Plus kit (Life Technologies, Cat. 10964-013), using the manufacturer's recommended conditions. Optimal SRE induction was seen when cells were seeded so as to become 100% confluent at the time of treatment, 72–96 hr after transfection.
293-EBNA cells were grown, lipofected in monolayer cultures, and pretreated as described above for Example 11, assay #1, except that NF-κB and AP-1 reporter-transfected cells were preteated for 6 hr in medium containing 0.5% […], then treated overnight in the same medium with or without 10 μM LPA.

[2] = molecular target: rat EDG-4 (Rattus norvegicus, UniProt P47752); test: NF-κB-tk-p4Luc luciferase reporter in 293-EBNA cells, rat EDG-4; design: transient transfection with a eukaryotic expression vector expressing full-length rat edg-4 cDNA; expressed in transfected cells; host or cells: 293-EBNA
Sequence of rat EDG-4 (P47752 whole entry): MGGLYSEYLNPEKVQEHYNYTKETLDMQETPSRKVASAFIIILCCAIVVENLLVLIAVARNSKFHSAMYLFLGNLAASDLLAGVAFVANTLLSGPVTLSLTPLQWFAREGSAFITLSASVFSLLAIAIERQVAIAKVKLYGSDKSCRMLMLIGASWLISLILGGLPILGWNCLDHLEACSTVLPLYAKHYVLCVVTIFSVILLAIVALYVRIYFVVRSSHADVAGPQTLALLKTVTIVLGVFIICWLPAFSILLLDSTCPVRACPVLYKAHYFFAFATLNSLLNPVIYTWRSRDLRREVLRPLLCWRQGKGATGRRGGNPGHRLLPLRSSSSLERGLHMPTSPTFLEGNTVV
Description: First, the NF-κB response element was reconstructed in a new reporter construct (p4Luc) suitable for stable maintenance as an episome in primate cells. […] The p4-Luc reporter used the backbone of pREP4 (Invitrogen; Cat. V004-50), which contains the EBV orgin of replicaiton (EBVoni), as well as the EBNA-1 viral antigen required to maintain EBVoti containing plasmids as stable episoms in primate cells, and a prokayotic selection marker. A dominant eukaryotic selection marker for zeocin resistance was substituted for expression in pREP4. The promoter of pREP4 was then excised and replaced with a multi-cloning site for introduction of promoter/enhancer inserts. The NF-κB inser of the previous CAT reporter was subcloned into this site and all cloning junctions were sequenced to verify the structure of the plasmid, called NF-κB-tk-p4Luc.
• 1) 150 mm plates of 293-EBNA obtained from Invitrogen (Cat. R620-07) with a confluency of 18 80% were used for transfection. • 2) 6.6 μg NF-κB-tk-p4Luc reporter DNA and 6.6 μg of pC3-redg4 (expressing rat EDG-4), or pcDNA3 DNA was diluted in 500 μl OPTI-MEM (Gibco; Cat. 31985-062) • 3) 96.8 μl Lipofectamine (Gibco; Cat. 18324-020) was diluted in 500 μl of OPTI-MEM. • 4) The 2 solutions were mixed gently and the tube was incubated for 30 min at room temperature. • 5) The 293-EBNA plates were washed once with PBS and 13 ml OPTI-MEM was added to each plate, • 6) 6 ml OPTI-UMM was added to each transfection tube and this was added to a plate of 293EBNA cells. The plates were left for 4 hrs at 37° C. in a 5% CO2 incubator. • 7) After 4 his, the media was removed and replaced with frest 10% FBS media. Day 2: • 1) Transfected cells were washed, typsinized with 1× tryspin, resuspended in 10 ml media and counted. • 2) 0.02×10 ^6 cells were plated per well of a 96-well Blackview plate coated with polyD-lysine. No cells were plated in the outside wells of the 96-well plate. Two 96-well plates were seeded for each transfection. Day 3: • 1) Cells were washed with PBS and 140 μl serum-free media (SFM) added to each well. Plates were incubated in 37° C. incubator for 6 hrs. • 2) After 6 hrs, media was removed and cells treated with compounds diluted in 0.5% FBS media (140 μl added to each well).
Day 4 Luciferase Assay • 1) Luclite kit (Packard; Cat. 6016911) was used for luciferase assay. All reagents were brought to room temperature before use. • 2) Supernatant was transferred to a new 96-well plate and stored at −20 C. for rupture IL-8 measurement. • 3) 50 μl 0.5 M HEPES pH 7.8 buffer (1 mM MgCl21 mM CaCl2) was addeded to all wells of 96-well plate. Black adhesive backing (polyfitronics) was aligned to the bottom of the viewplate. • 4) Luclite substrate was made up by adding 10 ml substate diluent to 1 vial lyophilized substrate. Reconstituted substrate was kept under a dark container. 50 μl substrate was added to each well. • 5) A clear adhesive plate sealer was adjusted on to the viewplate and sealer rubbed over the plate with a Kimwipe. The plate was shaken on a plate shaker at 500 rpm for 5 seconds right side up and then upside down. A stop plate was placed on top of the blackview plate to keep it in the dark. • 6) Plates were incubated at room temperature for 30 min. • 7) After incubation, plates were counted in a 12 detector Packard Top Count on a program without dark delay.

[3] = test system: Human Umbilical Vein Endothelial Cells (HUVEC); test: IL-8 response in primary cultured HUVEC; conditions: 5 μM, 6 hr
Description: Cells: HUVEC (Clonetics, Cat. CC-2519) were passaged according to supplier's instructions and used at passage 3. Cells were plated at 20,000 cells/well into 24-well plates. […] LPA induced a 3-fold IL-8 increase at this concentration. […] As shown below in FIG. 23, three cloned edge receptors respond to LPA as an agonist, and all three appear to transduce NF-κB activation in an agonist-dependent manner.

[4] = molecular target: T1, human EDG-4 (Homo sapiens, UniProt O95136, F273L/I205V); test: Relative potency and efficacy of agonists, luciferase (SRE) reporter in 293-EBNA cells expressing recombinant human EDG-4; conditions: for Rank (EMax): rank of efficacy
T1 construct: a 1059 bp open reading frame (excluding the stop codon) corresponding to the complete human edg-4 coding region; expressed in transfected cells; host or cells: 293-EBNA
T1 sequence (O95136 whole entry I205V/F273L): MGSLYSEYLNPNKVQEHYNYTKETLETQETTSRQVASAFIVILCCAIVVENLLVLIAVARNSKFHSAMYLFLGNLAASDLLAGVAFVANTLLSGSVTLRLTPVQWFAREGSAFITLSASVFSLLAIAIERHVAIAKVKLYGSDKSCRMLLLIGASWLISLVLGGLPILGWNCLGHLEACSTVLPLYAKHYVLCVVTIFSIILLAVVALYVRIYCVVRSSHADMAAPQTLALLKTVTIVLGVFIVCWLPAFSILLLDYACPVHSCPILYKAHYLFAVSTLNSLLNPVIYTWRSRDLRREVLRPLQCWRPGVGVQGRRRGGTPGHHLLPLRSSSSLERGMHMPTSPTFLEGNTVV
Description: Transfection of EDG-4, expression, pretreatment and treatment of 293-EBNA cells expressing recombinant human EDG-4 was carried out essentially as described in “Example 11. […] Results were tabulated in Microsoft Excel, and analyzed with GraphPad Prism sotfware. […] The luciferase response was expressed as fold response, after subtracting any endogenous response in pcDNA3-transfected cells at a given concentration of compound.

[5] = test system: 293-EBNA cells; test: IL-8 production in 293-EBNA cells; conditions: untransfected

| Molecule | SRE reporter response ([1]; pcDNA3 control) | induction of the SRE reporter ([1]; Example 15A, pcDNA3 control, 3 μM SPC, 6 hr) | induction of NF-κB reporter ([2]; Assay 1, 24 hrs) | increase in luciferase activity ([2]; Assay 2, 3 μM) | IL-8 levels, increase over untreated controls [3] | agonist character at EDG-4 [4] | Rank (EMax) [4] | EMax (Percent) ([4]; relative efficacy) | endogenous SRE reporter response vs untreated control cells ([1]; pcDNA3, 10 μM LPA) | IL-8 production [5] | increase in luciferase activity ([2]; Assay 1, 1 μM S1P, 24 hrs) | increase in luciferase activity ([2]; Assay 1, 5 μM or 10 μM S1P, 24 hrs) | Emax ([4]; 293-EBNA, relative efficacy, read-out: EMax (Percent)) |
| --- | --- | --- | --- | --- | --- | --- | --- | --- | --- | --- | --- | --- | --- |
| CCCCCCCCCCCCC/C=C/[C@@H](O)[C@@H](N)COP(=O)([O-])OCC[N+](C)(C)C [SPC, sphingosylphosphorylcholine] | not | about 2.5 fold | induced the reporter gene | 4 fold | Marginal increases | full agonists | 1 | 100% |  |  |  |  |  |
| lysophosphatidic acid [LPA] |  |  |  |  |  |  |  |  | about 1.5 fold | no IL-8 production |  |  |  |
| CCCCCCCCCCCCC/C=C/[C@@H](O)[C@@H](N)COP(=O)(O)O [S1P, sphingosine 1-phosphate] | about 1.5 fold |  |  | 3.5 fold | approximately 5 fold | full agonists | 2 |  |  | no IL-8 production | 2 fold | 4–4.5 fold | 86.7% |
